Test results: ChEMBL document CHEMBL6115030, “Systematic All-Hydrocarbon Stapling Analysis for Cecropin A Generates a Potent and Stable Antimicrobial Peptide” (J Med Chem, 2025)
Converted amounts (≈) assume the structure as drawn. The source made the active and inactive calls. No cut-off for these calls is given here. Bridge positions count the residues as written; N and C are the ends. Square brackets hold non-standard residues; d marks the D form. Peptide text beside a SMILES is read from it. S5 = C=CCCC[C@](C)(N)C(=O)O

Legend:
[1] = Toxicity in C57BL/6 female mouse assessed as haemorrhagic point and blurred white pulp boundary in liver at 25 mg/kg, ip measured during 14 days of study by H and E staining based analysis; format: organism-based; conditions: in vivo, 336 h, time 14 day
[2] = Toxicity in C57BL/6 mouse assessed as death at 50 mg/kg, ip measured on day 4; format: organism-based; conditions: in vivo, 96 h, time 4 day
[3] = system: Escherichia coli; assay: Induction of LPS transport pathway related genes in Escherichia coli assessed as change in LptE gene expression at 12.5 uM measured after 2 hrs incubation by PCR analysis; format: functional, organism-based
[4] = system: Escherichia coli; assay: Induction of multiple envelope stress pathway related pathways in Escherichia coli assessed as change in WcaL gene expression at 12.5 uM measured after 2 hrs incubation by PCR analysis; format: functional, organism-based
[5] = Toxicity in C57BL/6 female mouse assessed as haemorrhagic point and blurred white pulp boundary in spleen at 25 mg/kg, ip measured during 14 days of study by H and E staining based analysis; format: organism-based; conditions: in vivo, 336 h, time 14 day
[6] = system: Escherichia coli; assay: Induction of metabolism related pathways in Escherichia coli assessed as lipid metabolism pathway mRNAs at 12.5 uM measured after 2 hrs incubation by PCR analysis; format: functional, organism-based
[7] = system: Escherichia coli; assay: Induction of assembly related pathways in Escherichia coli assessed as change in BamB gene expression at 12.5 uM measured after 2 hrs incubation by PCR analysis; format: functional, organism-based
[8] = system: Klebsiella pneumoniae; assay: Antibacterial activity against Carbapenem-resistant Klebsiella pneumoniae assessed as inhibition of bacterial growth measured after 24 hrs by broth microdilution method; format: functional
[9] = system: Escherichia coli; assay: Induction of LPS transport pathway related genes in Escherichia coli assessed as change in LptB gene expression at 12.5 uM measured after 2 hrs incubation by PCR analysis; format: functional, organism-based
[10] = system: Escherichia coli; assay: Induction of multiple envelope stress pathway related pathways in Escherichia coli assessed as change in FimA gene expression at 12.5 uM measured after 2 hrs incubation by PCR analysis; format: functional, organism-based
[11] = system: Escherichia coli; assay: In vivo antibacterial activity against Escherichia coli intraperitoneally injected into C57BL/6 mouse peritonitis model assessed as reduction in bacterial load in kidney at 2.5 mg/kg, ip measured after 48 hrs relative to control; format: functional, organism-based
[12] = system: Mus musculus; assay: In vivo anti-inflammatory efficacy in Escherichia coli intraperitoneally injected into C57BL/6 mouse peritonitis model assessed as reduction in IL-6 level in blood at 2.5 mg/kg, ip measured after 48 hrs by ELISA; format: functional, organism-based
[13] = system: Pseudomonas aeruginosa; assay: Antibacterial activity against Pseudomonas aeruginosa PAO1 assessed as inhibition of bacterial growth measured after 24 hrs by broth microdilution method; format: functional
[14] = system: Escherichia coli; assay: Induction of metabolism related pathways in Escherichia coli assessed as protein synthesis pathway mRNAs at 12.5 uM measured after 2 hrs incubation by PCR analysis; format: functional, organism-based
[15] = Hemolytic activity in human RBC assessed as hemolysis incubated for 1 hr by microplate reader; format: toxicity, cell-based, Erythrocyte; conditions: erythrocyte, 1 h
[16] = system: Escherichia coli; assay: Induction of LPS transport pathway related genes in Escherichia coli assessed as change in LptA gene expression at 12.5 uM measured after 2 hrs incubation by PCR analysis; format: functional, organism-based
[17] = system: Staphylococcus aureus; assay: Antibacterial activity against Staphylococcus aureus ATCC 25923 assessed as inhibition of bacterial growth measured after 24 hrs by broth microdilution method; format: functional
[18] = system: Acinetobacter baumannii; assay: Antibacterial activity against Pandrug-resistant Acinetobacter baumannii assessed as inhibition of bacterial growth measured after 24 hrs by broth microdilution method; format: functional
[19] = system: Escherichia coli; assay: Induction of multiple envelope stress pathway related pathways in Escherichia coli assessed as change in WcaC gene expression at 12.5 uM measured after 2 hrs incubation by PCR analysis; format: functional, organism-based
[20] = system: Escherichia coli; assay: In vivo antibacterial activity against Escherichia coli intraperitoneally injected into C57BL/6 mouse peritonitis model assessed as mouse survival at 2.5 mg/kg, ip measured after 48 hrs relative to control; format: functional
[21] = system: Escherichia coli; assay: In vivo antibacterial activity against Escherichia coli intraperitoneally injected into C57BL/6 mouse peritonitis model assessed as reduction in bacterial load in lung at 2.5 mg/kg, ip measured after 48 hrs relative to control; format: functional, organism-based
[22] = Toxicity in C57BL/6 mouse assessed as death at 25 mg/kg, ip measured during 14 days of study; format: organism-based; conditions: in vivo, 336 h, time 14 day
[23] = system: Cell membrane; assay: Induction of Outer membrane damage in Escherichia coli assessed as increase in NPN intensity at 5 uM measured after 24 hrs incubation by microplate reader based outer membrane permeability assay; format: subcellular
[24] = system: Escherichia coli; assay: Induction of outer membrane synthesis related pathways in Escherichia coli assessed as change in OmpG gene expression at 12.5 uM measured after 2 hrs incubation by PCR analysis; format: functional, organism-based
[25] = Toxicity in C57BL/6 mouse assessed as increase in body weight at 25 mg/kg, ip measured during 14 days of study; format: organism-based; conditions: in vivo, 336 h, time 14 day
[26] = system: Klebsiella pneumoniae; assay: Antibacterial activity against Klebsiella pneumoniae ATCC 13883 assessed as inhibition of bacterial growth measured after 24 hrs by broth microdilution method; format: functional
[27] = system: Cell membrane; assay: Induction of Outer membrane damage in Escherichia coli assessed as pore formation and surface rupture at 5 uM measured after 24 hrs by SEM imaging analysis; format: subcellular
[28] = system: Shigella flexneri; assay: Antibacterial activity against Shigella flexneri 301 assessed as inhibition of bacterial growth measured after 24 hrs by broth microdilution method; format: functional
[29] = system: Escherichia coli; assay: Induction of assembly related pathways in Escherichia coli assessed as change in BamA gene expression at 12.5 uM measured after 2 hrs incubation by PCR analysis; format: functional, organism-based
[30] = system: Pseudomonas aeruginosa; assay: Antibacterial activity against Carbapenem-resistant Pseudomonas aeruginosa assessed as inhibition of bacterial growth measured after 24 hrs by broth microdilution method; format: functional
[31] = system: Cell membrane; assay: Induction of Inner membrane damage in Escherichia coli assessed as increase in […] ONPG intensity at 5 uM measured after 24 hrs incubation by microplate reader based inner membrane permeability assay; format: subcellular
[32] = system: Mus musculus; assay: In vivo anti-inflammatory efficacy in Escherichia coli intraperitoneally injected into C57BL/6 mouse peritonitis model assessed as reduction in TNF-alpha level in blood at 2.5 mg/kg, ip measured after 48 hrs by ELISA; format: functional, organism-based
[33] = system: Salmonella typhimurium; assay: Antibacterial activity against Salmonella typhimurium assessed as inhibition of bacterial growth measured after 24 hrs by broth microdilution method; format: functional, Salmonella enterica subsp. enterica serovar Typhimurium; conditions: Salmonella enterica
[34] = system: Escherichia coli; assay: Induction of outer membrane synthesis related pathways in Escherichia coli assessed as change in OmpX gene expression at 12.5 uM measured after 2 hrs incubation by PCR analysis; format: functional, organism-based
[35] = system: Escherichia coli; assay: In vivo antibacterial activity against Escherichia coli intraperitoneally injected into C57BL/6 mouse peritonitis model assessed as reduction in bacterial load in spleen at 2.5 mg/kg, ip measured after 48 hrs relative to control; format: functional, organism-based
[36] = Stability of the compound in human serum assessed as retention time by RP-HPLC analysis; format: ADME, cell-free
[37] = system: Escherichia coli; assay: Induction of metabolism related pathways in Escherichia coli assessed as energetic metabolism pathway mRNAs at 12.5 uM measured after 2 hrs incubation by PCR analysis; format: functional, organism-based
[38] = Stability of the compound in human serum assessed as remaining peptide by RP-HPLC analysis; format: ADME, cell-free
[39] = system: NIH3T3; assay: Cytotoxicity against mouse NIH3T3 cells assessed as cell viability measured upto 50 uM incubated for 24 hrs by CCK-8 assay; format: toxicity, cell-based; conditions: nih3t3, 24 h

SMILES: CC[C@H](C)[C@H](NC(=O)CNC(=O)[C@H](CC(=O)O)NC(=O)[C@H](CCCNC(=N)N)NC(=O)[C@@H](NC(=O)[C@H](CC(N)=O)NC(=O)[C@H](CCC(N)=O)NC(=O)CNC(=O)[C@@H](NC(=O)[C@H](CCCCN)NC(=O)[C@H](CCC(=O)O)NC(=O)[C@@H](NC(=O)[C@H](CCCCN)NC(=O)[C@H](CCCCN)NC(=O)[C@H](Cc1ccccc1)NC(=O)[C@H](CC(C)C)NC(=O)[C@H](CCCCN)NC(=O)[C@H](Cc1c[nH]c2ccccc12)NC(=O)[C@H](CCCCN)NC(C)=O)[C@@H](C)CC)C(C)C)[C@@H](C)CC)C(=O)N[C@H](C(=O)N[C@@H](CCCCN)C(=O)N[C@@H](C)C(=O)NCC(=O)N1CCC[C@H]1C(=O)N[C@@H](C)C(=O)N[C@H](C(=O)N[C@@H](C)C(=O)N[C@H](C(=O)N[C@H](C(=O)NCC(=O)N[C@@H](CCC(N)=O)C(=O)N[C@@H](C)C(=O)N[C@@]1(C)CCC/C=C\CCC[C@@](C)(C(N)=O)NC(=O)[C@H](C)NC(=O)[C@H]([C@@H](C)CC)NC(=O)[C@H](CCC(N)=O)NC1=O)C(C)C)C(C)C)C(C)C)[C@@H](C)CC (Ac-KWKLFKKIEKVGQNIRDGIIKAGPAVAVVGQA[S5]QIA[S5]-NH2; staple (Z) 33-37)
- Activity [1]: Non-toxic
- Activity [2]: Toxic
- Activity [3]: Active
- Activity [4]: Active
- Activity [5]: Non-toxic
- Activity [6]: Active
- Activity [7]: Active
- MIC [8]: 6.25 µM (≈ 25.4 µg/mL)
- Activity [9]: Active
- Activity [10]: Active
- Activity [11]: Active; Compound Showed Enhanced Bacterial Elimination Than Cec-0 And Compound Showed Comparable Bacterial Elimination To Polymyxin B
- Activity [12]: Active
- MIC [13]: 6.25 µM (≈ 25.4 µg/mL)
- Activity [14]: Active
- Activity [15]: Non-toxic
- Activity [16]: Active
- MIC [17]: 3.13 µM (≈ 12.7 µg/mL)
- MIC [18]: < 0.78 µM
- Activity [19]: Active
- Activity [20]: 67%
- Activity [21]: Active; Compound Showed Enhanced Bacterial Elimination Than Cec-0
- Activity [22]: Non-toxic
- Activity [23]: Active
- Activity [24]: Active
- Activity [25]: Toxic
- MIC [26]: 3.13 µM (≈ 12.7 µg/mL)
- Activity [27]: Active
- MIC [28]: 1.56 µM (≈ 6.34 µg/mL)
- Activity [29]: Active
- MIC [30]: > 100 µM
- Activity [31]: Active
- Activity [32]: Active
- MIC [33]: 3.13 µM (≈ 12.7 µg/mL)
- Activity [34]: Active
- Activity [35]: Active; Compound Showed Enhanced Bacterial Elimination Than Cec-0
- Retention_time [36]: 25.17 min
- Activity [37]: Active
- Stability [38]: > 50%
- Activity [39]: Non-toxic
